IC50 data for 8 compounds are collected here from patent publication US9120749B2, “Quinoline derivatives and MELK inhibitors containing the same” (ONCOTHERAPY SCIENCE, INC., priority 2010, dated 2015).

For one test, the system named is A549 cells. Kind of test: Cell-based assay: anti-proliferative activity, Cell Counting Kit-8, 72 hours (A549). As to conditions: Homo sapiens, A549, 72 h, MELK-expressing, Cell Counting Kit-8 at 72 hours. In a few lines:
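A549 cells seeded in 96-well plates and exposed to candidate inhibitors for 72 hours. Growth measured with Cell Counting Kit-8; IC50 values calculated from the dose response.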
A general note: Tetrazolium assays rely on reduction of a dye to a coloured formazan, in cell work by metabolically active cells.

For the next test, the target named is MELK (Homo sapiens, UniProt Q14680). Kind of test: Kinase assay: MELK activity, phosphorylation of FITC-labeled histone H3 peptide measured by IMAP fluorescence polarization. The test is classed as biochemical. The following applies: 50 micro-M ATP, FITC-labeled histone H3 peptide substrate, IMAP fluorescence polarization; read-out: IC50 (μM) (kinase assay). A digest of the protocol:
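Kinase reactions ran with or without test compound (final DMSO 1%) on a fluorescein-tagged H3 peptide. Progressive binding solution was added to terminate them. After a half-hour room-temperature incubation, polarization was measured.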
(In fluorescence polarisation assays a small probe gives low polarisation when free and higher when bound to something large.)

A further test deals with BT-549 cells. Kind of test: Cell-based assay: anti-proliferative activity, Cell Counting Kit-8, 72 hours (BT-549). As to conditions: Homo sapiens, BT-549, 72 h, BT549 cells, MELK-expressing; Cell Counting Kit-8 at 72 hours. In a few lines:
(§1)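 First, lysates underwent western blotting with anti-MELK antibody to establish expression. Next, cells went into 96-well plates. Then candidate inhibitors were added. Finally, viability was determined by CCK-8 at 72 h and IC50 computed.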

The subject of another test is T47D cells. The experiment in a line: Cell-based assay: anti-proliferative activity, Cell Counting Kit-8, 72 hours (T47D). As to conditions: Homo sapiens, T47D, 72 h, MELK-expressing, Cell Counting Kit-8 at 72 hours. In a few lines: as §1
A further test has as its system HT-1197 cells. The experiment in a line: Cell-based assay: anti-proliferative activity, Cell Counting Kit-8, 72 hours (HT-1197, negative control without MELK expression). The following applies: Homo sapiens, HT1197, 72 h, HT1197 cells, no MELK expression (negative control); Cell Counting Kit-8 at 72 hours. In a few lines: as §1

Sequence of MELK (Q14680 whole entry, looked up): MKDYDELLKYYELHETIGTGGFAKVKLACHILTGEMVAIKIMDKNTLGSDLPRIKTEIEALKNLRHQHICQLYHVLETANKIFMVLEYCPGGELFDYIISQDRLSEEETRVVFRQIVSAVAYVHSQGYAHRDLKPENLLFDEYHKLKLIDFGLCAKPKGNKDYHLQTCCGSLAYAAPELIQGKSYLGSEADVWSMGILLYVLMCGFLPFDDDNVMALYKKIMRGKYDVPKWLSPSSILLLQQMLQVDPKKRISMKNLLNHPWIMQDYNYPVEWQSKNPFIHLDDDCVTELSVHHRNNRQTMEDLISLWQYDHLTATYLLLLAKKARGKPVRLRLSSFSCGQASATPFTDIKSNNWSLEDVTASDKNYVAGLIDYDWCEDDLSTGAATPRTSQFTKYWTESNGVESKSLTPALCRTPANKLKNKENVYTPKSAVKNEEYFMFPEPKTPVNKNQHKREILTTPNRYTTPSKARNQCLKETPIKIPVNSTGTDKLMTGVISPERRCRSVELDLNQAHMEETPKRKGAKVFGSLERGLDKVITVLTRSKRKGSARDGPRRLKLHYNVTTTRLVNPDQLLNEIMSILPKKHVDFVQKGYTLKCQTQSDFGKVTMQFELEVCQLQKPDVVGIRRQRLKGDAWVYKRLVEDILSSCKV

In the case of `N[C@H]1CC[C@H](Nc2c(C(=O)C3CC3)cnc3ccc(-c4cc(Cl)c(O)c(Cl)c4)cc23)CC1` [Example 157(a), {4-[trans-4-Aminocyclohexylamino]-6-(3,5-dichloro-4-hydroxyphenyl)quinolin-3-yl}(cyclopropyl)methanone], the IC50 came out at 0.57 µM with A549 cells; 0.0076 µM on MELK; 0.33 µM in the test with BT-549 cells; 0.15 µM in the test on T47D cells; 3.7 µM with HT-1197 cells.

As for `CN(C)CC1CCN(c2c(C(=O)C3CC3)cnc3ccc(-c4ccc(O)c(Cl)c4)cc23)CC1` [Example 279, [6-(3-Chloro-4-hydroxyphenyl)-4-{4-[(dimethylamino)methyl]piperidin-1-yl}quinolin-3-yl](cyclopropyl)methanone], the IC50 in the test with A549 cells is 0.3 µM; on MELK, 0.0046 µM; in the test on BT-549 cells it was 0.86 µM; in the test on T47D cells it was 0.21 µM; with HT-1197 cells, 6.7 µM.

Regarding `CC(C1CCN(c2c(C(=O)C3CC3)cnc3ccc(-c4cc(F)c(O)c(Cl)c4)cc23)CC1)N(C)C` (stereo not shown) [Example 269, [6-(3-Chloro-5-fluoro-4-hydroxyphenyl)-4-{4-[1-(dimethylamino)ethyl]piperidin-1-yl}quinolin-3-yl](cyclopropyl)methanone], the concentration for half-maximal inhibition (IC50) in the test with A549 cells was 0.44 µM; on MELK it was 0.0037 µM; in the test on BT-549 cells, 0.5 µM; with T47D cells, 0.22 µM; in the test with HT-1197 cells, 1.3 µM.

Take `COc1cc(-c2ccc3ncc(C(=O)C4CC4)c(N[C@H]4CC[C@@H](N)CC4)c3c2)ccc1O` [Example 165, {4-(cis-4-Aminocyclohexylamino)-6-(4-hydroxy-3-methoxyphenyl)quinolin-3-yl}(cyclopropyl)methanone]: the IC50 was determined as 0.45 µM in the test with A549 cells; 0.0019 µM on MELK; 0.93 µM with BT-549 cells; 0.57 µM in the test with T47D cells; 2.1 µM in the test with HT-1197 cells.

Regarding `O=C(c1cnc2ccc(-c3ccc(O)c(Cl)c3)cc2c1NCCN1CCNCC1)C1CC1` [Example 215, {6-(3-Chloro-4-hydroxyphenyl)-4-[2-(piperazin-1-yl)ethylamino]quinolin-3-yl}(cyclopropyl)methanone], the half-maximal inhibitory concentration (IC50) turned out to be 1.2 µM in the test on A549 cells; 0.017 µM on MELK; 1.5 µM in the test on BT-549 cells; 0.92 µM with T47D cells; 3.9 µM in the test on HT-1197 cells.

For the compound `CC(C)C(=O)c1cnc2ccc(-c3ccc(O)c(Cl)c3)cc2c1N[C@H]1CC[C@H](N)CC1` [Example 219, 1-{4-[trans-4-Aminocyclohexylamino]-6-(3-chloro-4-hydroxyphenyl)quinolin-3-yl}-2-methylpropan-1-one], the half-maximal inhibitory concentration (IC50) was 0.32 µM in the test with A549 cells; 0.023 µM at MELK; 0.25 µM with BT-549 cells; 0.11 µM in the test on T47D cells; 1.2 µM in the test on HT-1197 cells.

For `COc1cc(-c2ccc3ncc(C(C)=O)c(N4CCC(CN(C)C)CC4)c3c2)cc(Cl)c1O` [Example 305, 1-[6-(3-chloro-4-hydroxy-5-methoxyphenyl)-4-{4-[(dimethylamino)methyl]piperidin-1-yl}quinolin-3-yl]ethanone], the IC50 in the test on A549 cells is 0.14 µM; at MELK it was 0.0022 µM; with BT-549 cells, 0.33 µM; with T47D cells it was 0.21 µM; in the test with HT-1197 cells, 3.6 µM.

For `N#Cc1ncc(-c2ccc3ncc(C(=O)C4CC4)c(N[C@H]4CC[C@H](N)CC4)c3c2)cn1` [Example 96, 5-{4-[trans-4-Aminocyclohexylamino]-3-(cyclopropanecarbonyl)quinolin-6-yl}pyrimidine-2-carbonitrile], the half-maximal inhibitory concentration (IC50) in the test with A549 cells came to 1.3 µM; at MELK, 0.0024 µM; in the test with BT-549 cells, 0.93 µM; with T47D cells it was 0.29 µM; in the test with HT-1197 cells, 1.5 µM.

The term IC50 denotes the concentration that inhibits the measured activity by half.
